According to doi:10.1101/2023.11.24.568596v1 (biorxiv, 2023):
One block for each molecule: values may come before it.

Tests used:
Conditions in all cases: binder
[1] = target: T1, MAP3K5 (Homo sapiens, UniProt Q99683)
T1 sequence (Q99683 1-1374): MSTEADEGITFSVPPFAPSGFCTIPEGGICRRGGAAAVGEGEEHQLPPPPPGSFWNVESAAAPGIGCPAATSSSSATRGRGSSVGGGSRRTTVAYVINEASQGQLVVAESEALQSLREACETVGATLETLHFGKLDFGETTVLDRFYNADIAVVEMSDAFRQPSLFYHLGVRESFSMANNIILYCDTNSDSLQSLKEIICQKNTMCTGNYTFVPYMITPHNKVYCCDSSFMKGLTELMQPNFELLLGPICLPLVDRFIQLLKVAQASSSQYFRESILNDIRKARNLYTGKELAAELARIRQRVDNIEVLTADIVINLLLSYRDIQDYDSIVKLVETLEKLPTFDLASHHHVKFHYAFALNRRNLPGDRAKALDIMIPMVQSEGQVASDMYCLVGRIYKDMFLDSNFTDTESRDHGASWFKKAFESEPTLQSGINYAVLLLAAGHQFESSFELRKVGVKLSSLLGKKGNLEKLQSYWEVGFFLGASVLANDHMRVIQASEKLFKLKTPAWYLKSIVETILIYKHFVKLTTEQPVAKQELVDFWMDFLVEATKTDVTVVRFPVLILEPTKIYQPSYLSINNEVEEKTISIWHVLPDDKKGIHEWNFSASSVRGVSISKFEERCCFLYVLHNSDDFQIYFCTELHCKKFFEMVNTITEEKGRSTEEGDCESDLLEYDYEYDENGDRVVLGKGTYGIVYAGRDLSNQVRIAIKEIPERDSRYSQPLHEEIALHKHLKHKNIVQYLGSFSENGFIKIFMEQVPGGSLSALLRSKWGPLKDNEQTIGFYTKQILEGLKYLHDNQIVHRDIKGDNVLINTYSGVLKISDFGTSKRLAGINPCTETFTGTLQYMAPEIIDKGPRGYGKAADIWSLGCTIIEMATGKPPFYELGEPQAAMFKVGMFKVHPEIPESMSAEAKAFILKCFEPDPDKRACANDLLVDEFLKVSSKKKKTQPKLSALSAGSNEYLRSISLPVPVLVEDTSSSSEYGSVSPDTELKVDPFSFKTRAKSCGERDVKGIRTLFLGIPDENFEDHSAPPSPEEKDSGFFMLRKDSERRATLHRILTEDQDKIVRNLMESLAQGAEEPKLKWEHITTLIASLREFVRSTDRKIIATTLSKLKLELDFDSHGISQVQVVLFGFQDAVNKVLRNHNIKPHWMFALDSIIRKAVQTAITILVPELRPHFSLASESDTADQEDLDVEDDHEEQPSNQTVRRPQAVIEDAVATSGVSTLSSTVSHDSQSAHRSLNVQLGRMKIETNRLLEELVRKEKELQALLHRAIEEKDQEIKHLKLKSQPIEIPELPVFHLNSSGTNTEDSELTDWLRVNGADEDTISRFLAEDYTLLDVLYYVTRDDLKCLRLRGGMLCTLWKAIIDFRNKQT

[2] = target: T2, DCAMKL1 (Homo sapiens, UniProt O15075)
T2 sequence (O15075 1-740): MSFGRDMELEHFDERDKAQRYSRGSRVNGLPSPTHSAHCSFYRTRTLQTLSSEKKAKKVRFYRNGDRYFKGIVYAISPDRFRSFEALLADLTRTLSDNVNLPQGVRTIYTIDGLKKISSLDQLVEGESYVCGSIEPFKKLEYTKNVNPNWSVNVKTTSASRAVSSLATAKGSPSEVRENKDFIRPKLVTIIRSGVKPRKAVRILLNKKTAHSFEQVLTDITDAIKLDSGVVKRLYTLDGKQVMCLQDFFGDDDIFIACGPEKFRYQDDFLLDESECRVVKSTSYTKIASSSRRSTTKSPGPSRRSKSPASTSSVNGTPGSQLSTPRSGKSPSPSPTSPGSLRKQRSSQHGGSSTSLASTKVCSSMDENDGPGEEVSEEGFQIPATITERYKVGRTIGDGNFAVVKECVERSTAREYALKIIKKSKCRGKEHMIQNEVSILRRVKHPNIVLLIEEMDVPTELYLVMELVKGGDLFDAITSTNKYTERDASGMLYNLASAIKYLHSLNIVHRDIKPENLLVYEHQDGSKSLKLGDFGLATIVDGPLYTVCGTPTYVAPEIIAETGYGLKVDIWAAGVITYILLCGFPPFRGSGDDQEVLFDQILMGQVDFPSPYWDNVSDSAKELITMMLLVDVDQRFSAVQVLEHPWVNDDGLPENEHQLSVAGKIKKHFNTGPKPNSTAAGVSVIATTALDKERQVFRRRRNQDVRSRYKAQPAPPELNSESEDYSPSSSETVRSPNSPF

[3] = target: T3, MAP2K7 (Homo sapiens, UniProt O14733)
T3 sequence (O14733 1-419): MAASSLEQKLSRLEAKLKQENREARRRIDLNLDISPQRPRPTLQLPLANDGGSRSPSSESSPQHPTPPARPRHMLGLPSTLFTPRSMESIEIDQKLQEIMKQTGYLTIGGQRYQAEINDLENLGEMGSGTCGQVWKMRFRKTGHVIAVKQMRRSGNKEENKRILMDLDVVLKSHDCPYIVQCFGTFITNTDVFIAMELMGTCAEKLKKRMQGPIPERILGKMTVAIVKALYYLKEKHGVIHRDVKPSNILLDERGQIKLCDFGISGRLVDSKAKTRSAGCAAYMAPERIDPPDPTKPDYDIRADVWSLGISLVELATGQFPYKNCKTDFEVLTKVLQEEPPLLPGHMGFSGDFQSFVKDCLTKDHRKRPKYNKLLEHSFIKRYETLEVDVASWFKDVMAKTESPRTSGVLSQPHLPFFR

[4] = target: MST3 (Homo sapiens, UniProt Q9Y6E0)
MST3, sequence (Q9Y6E0 whole entry): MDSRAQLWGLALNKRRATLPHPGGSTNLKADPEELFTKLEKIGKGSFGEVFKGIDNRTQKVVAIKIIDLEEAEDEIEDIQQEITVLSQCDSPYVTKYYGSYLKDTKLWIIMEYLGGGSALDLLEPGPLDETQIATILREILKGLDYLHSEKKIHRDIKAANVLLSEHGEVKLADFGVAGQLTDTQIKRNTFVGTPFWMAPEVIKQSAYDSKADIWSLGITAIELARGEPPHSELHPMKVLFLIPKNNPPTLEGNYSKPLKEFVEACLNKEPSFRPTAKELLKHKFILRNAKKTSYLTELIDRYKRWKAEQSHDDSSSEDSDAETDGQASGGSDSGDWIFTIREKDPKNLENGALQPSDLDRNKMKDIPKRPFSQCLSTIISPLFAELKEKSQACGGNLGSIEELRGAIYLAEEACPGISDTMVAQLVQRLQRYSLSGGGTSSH

[5] = target: JNK2 (Homo sapiens, UniProt P45984)
JNK2, sequence (P45984 whole entry): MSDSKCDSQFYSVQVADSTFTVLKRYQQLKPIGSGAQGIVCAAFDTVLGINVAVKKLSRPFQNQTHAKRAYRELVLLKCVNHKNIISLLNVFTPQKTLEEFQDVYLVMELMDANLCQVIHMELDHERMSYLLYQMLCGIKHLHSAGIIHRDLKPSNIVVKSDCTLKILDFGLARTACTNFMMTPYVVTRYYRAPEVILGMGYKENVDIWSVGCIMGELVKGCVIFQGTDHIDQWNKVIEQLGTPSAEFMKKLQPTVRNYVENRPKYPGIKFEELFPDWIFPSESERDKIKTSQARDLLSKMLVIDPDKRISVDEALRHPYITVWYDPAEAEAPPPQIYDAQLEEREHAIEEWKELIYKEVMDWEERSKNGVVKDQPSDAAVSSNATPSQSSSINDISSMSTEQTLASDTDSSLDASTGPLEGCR

[6] = target: CK2a1 (Homo sapiens, UniProt P68400)
CK2a1, sequence (P68400 whole entry): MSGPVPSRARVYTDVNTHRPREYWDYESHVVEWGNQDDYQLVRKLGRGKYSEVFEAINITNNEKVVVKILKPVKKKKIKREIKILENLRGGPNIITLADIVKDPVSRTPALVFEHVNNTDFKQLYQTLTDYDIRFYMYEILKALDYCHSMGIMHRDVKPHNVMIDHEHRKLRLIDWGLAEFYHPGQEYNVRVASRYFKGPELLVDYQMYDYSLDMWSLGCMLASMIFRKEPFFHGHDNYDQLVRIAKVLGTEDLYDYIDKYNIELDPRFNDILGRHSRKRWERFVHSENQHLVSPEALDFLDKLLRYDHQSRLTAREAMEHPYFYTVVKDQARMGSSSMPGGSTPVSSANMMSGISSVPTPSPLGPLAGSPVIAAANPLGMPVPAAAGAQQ

[7] = target: Erk3 (Homo sapiens, UniProt Q16659)
Erk3, sequence (Q16659 whole entry): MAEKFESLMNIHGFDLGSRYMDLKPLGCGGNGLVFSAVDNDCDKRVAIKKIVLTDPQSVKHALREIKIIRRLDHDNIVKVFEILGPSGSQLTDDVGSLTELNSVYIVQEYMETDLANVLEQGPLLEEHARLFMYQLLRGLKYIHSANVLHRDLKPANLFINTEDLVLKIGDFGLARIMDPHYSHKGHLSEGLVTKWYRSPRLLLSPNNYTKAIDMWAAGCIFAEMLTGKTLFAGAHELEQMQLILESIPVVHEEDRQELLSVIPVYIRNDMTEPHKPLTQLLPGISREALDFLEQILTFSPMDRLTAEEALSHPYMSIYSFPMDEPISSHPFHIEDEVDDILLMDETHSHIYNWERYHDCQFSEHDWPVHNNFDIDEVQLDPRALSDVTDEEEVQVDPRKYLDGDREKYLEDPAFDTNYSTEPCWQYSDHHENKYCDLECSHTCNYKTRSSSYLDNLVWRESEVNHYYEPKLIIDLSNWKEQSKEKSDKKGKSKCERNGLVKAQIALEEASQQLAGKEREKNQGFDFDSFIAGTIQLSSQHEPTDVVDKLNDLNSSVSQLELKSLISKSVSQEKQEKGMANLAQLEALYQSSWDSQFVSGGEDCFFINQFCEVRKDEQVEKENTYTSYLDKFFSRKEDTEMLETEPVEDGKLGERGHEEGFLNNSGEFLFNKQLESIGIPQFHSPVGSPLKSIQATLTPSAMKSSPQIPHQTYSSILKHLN

ΔTm 28 [1]: 12.2 °C
ΔTm 28 [2]: 0.9 °C
ΔTm 28 [3]: 2.9 °C
ΔTm 28 [4]: 12.1 °C
ΔTm 28 [5]: 0.0 °C
ΔTm 28 [6]: -0.6 °C
ΔTm 28 [7]: 0.7 °C
SMILES: Cc1cccc(-c2ccc(-c3cc4cnc(Nc5cc(C(F)(F)F)ccc5C)nc4n(CCCCN)c3=O)c(Cl)c2)n1 [compound 28, 8-(4-Aminobutyl)-6-(2-chloro-4-(6-methylpyridin-2-yl)phenyl)-2-((2-methyl-5-(trifluoromethyl)phenyl)amino)pyrido[2,3-d]pyrimidin-7(8H)-one]

ΔTm MR30 (27) [1]: 9.2 °C
ΔTm MR30 (27) [2]: -1.8 °C
ΔTm MR30 (27) [3]: 2.6 °C
ΔTm MR30 (27) [4]: 9.8 °C
ΔTm MR30 (27) [5]: 0.7 °C
ΔTm MR30 (27) [6]: -0.4 °C
ΔTm MR30 (27) [7]: 0.5 °C
SMILES: Cc1cccc(-c2ccc(-c3cc4cnc(NCCCN5CCCC5=O)nc4n(CCCCN)c3=O)c(Cl)c2)n1 [compound 27, MR30]

ΔTm 30 [1]: 13.1 °C
ΔTm 30 [2]: 2.0 °C
ΔTm 30 [3]: 6.2 °C
ΔTm 30 [4]: 15.5 °C
ΔTm 30 [5]: 4.3 °C
ΔTm 30 [6]: -1.1 °C
ΔTm 30 [7]: 1.1 °C
SMILES: Cc1cccc(-c2ccc(-c3cc4cnc(Nc5ccc(CCCO)cc5)nc4n(CCCCN)c3=O)c(Cl)c2)n1 [compound 30, 8-(4-Aminobutyl)-6-(2-chloro-4-(6-methylpyridin-2-yl)phenyl)-2-((4-(3-hydroxypropyl)phenyl)amino)pyrido[2,3-d]pyrimidin-7(8H)-one]

ΔTm 31 [1]: 12.3 °C
ΔTm 31 [2]: 1.1 °C
ΔTm 31 [3]: 8.9 °C
ΔTm 31 [4]: 16.1 °C
ΔTm 31 [5]: 4.2 °C
ΔTm 31 [6]: 0.0 °C
ΔTm 31 [7]: 1.2 °C
SMILES: Cc1cccc(-c2ccc(-c3cc4cnc(Nc5ccc(O)cc5)nc4n(CCCCN)c3=O)c(Cl)c2)n1 [compound 31, 8-(4-Aminobutyl)-6-(2-chloro-4-(6-methylpyridin-2-yl)phenyl)-2-((4-hydroxyphenyl)amino) pyrido[2,3-d]pyrimidin-7(8H)-one]

ΔTm 32 [1]: 12.7 °C
ΔTm 32 [2]: 1.4 °C
ΔTm 32 [3]: 7.3 °C
ΔTm 32 [4]: 15.4 °C
ΔTm 32 [5]: 3.3 °C
ΔTm 32 [6]: -0.3 °C
ΔTm 32 [7]: 1.0 °C
SMILES: Cc1cccc(-c2ccc(-c3cc4cnc(Nc5ccc(C)c(O)c5)nc4n(CCCCN)c3=O)c(Cl)c2)n1 [compound 32, 8-(4-Aminobutyl)-6-(2-chloro-4-(6-methylpyridin-2-yl)phenyl)-2-((3-hydroxy-4-methylphenyl)amino)pyrido[2,3-d]pyrimidin-7(8H)-one]

ΔTm 29 [1]: 9.6 °C
ΔTm 29 [2]: -1.7 °C
ΔTm 29 [3]: 1.4 °C
ΔTm 29 [4]: 14.3 °C
ΔTm 29 [5]: -0.1 °C
ΔTm 29 [6]: -0.2 °C
ΔTm 29 [7]: 0.3 °C
SMILES: Cc1cccc(-c2ccc(-c3cc4cnc(NCCCN5CCNCC5)nc4n(CCCCN)c3=O)c(Cl)c2)n1 [compound 29, 8-(4-Aminobutyl)-6-(2-chloro-4-(6-methylpyridin-2-yl)phenyl)-2-((3-(piperazin-1-yl)propyl)amino)pyrido[2,3-d]pyrimidin-7(8H)-one]
